Some test systems named below: SN12C; ACHN; SW-620; NCI-H522; CAKI-1; UACC-257; A549; RPMI-8226; LOX IMVI; KM12; NCI/ADR-RES; NCI-H23; NCI-H226; DU-145; U-251; IGROV-1; M14; MOLT-4; OVCAR-5.
What all share (assay): growth of human tumour cells (NCI), 48 h

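Briefly, cells in 96-well plates were exposed to five compound concentrations for 48 h, and endpoints were estimated by linear interpolation. The concentration for 50% growth inhibition is given as GI50.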 Calls of active or inactive are those of the source. Rule as the data show it: active = GI50 up to about 1.1 µM and inactive = higher.

Consider `Cc1ccc(S(=O)(=O)Nc2ccccc2C=O)cc1`, for which the GI50 was 16.1 µM (inactive) in the experiment on SN12C; 17.7 µM (inactive) in the experiment on ACHN; 17 µM (inactive) in the experiment on SW-620; 29 µM (inactive) in the experiment with NCI-H522; 23.9 µM (inactive) in the experiment on CAKI-1; 18 µM (inactive) with UACC-257. For the same compound, the GI50 with A549 was 27.1 µM (inactive); with RPMI-8226, 5.62 µM (inactive); in the experiment with LOX IMVI, 13.8 µM (inactive); in the experiment with KM12 it was 16.1 µM (inactive); in the experiment on NCI/ADR-RES, 14.6 µM (inactive); in the experiment on NCI-H23, 14.7 µM (inactive). Moreover, the GI50 was 14.6 µM (inactive) with NCI-H226; 26.1 µM (inactive) in the experiment with DU-145; 13.1 µM (inactive) in the experiment on U-251; 17.4 µM (inactive) with IGROV-1; 19.3 µM (inactive) in the experiment with M14; 11.9 µM (inactive) in the experiment on MOLT-4. The GI50 with OVCAR-5 was 25.1 µM (inactive).

With `O=c1[nH]nc(-c2ccccc2)n1/N=C/c1ccc([N+](=O)[O-])cc1`, the GI50 with SN12C was > 62.1 µM (inactive); in the experiment with ACHN, 11.4 µM (inactive); with SW-620 it was > 100 µM (inactive); with NCI-H522 it was > 100 µM (inactive); in the experiment with CAKI-1 it was 12.3 µM (inactive); in the experiment on UACC-257, > 100 µM (inactive). The GI50 is 23.9 µM (inactive) with A549; > 100 µM (inactive) with RPMI-8226; 31.1 µM (inactive) in the experiment with LOX IMVI; > 100 µM (inactive) with KM12; 20.1 µM (inactive) in the experiment with NCI/ADR-RES; > 53.2 µM (inactive) in the experiment with NCI-H23. Besides, the GI50 is 27.6 µM (inactive) in the experiment on NCI-H226; 56.1 µM (inactive) in the experiment with DU-145; 4.74 µM (inactive) in the experiment on U-251; > 58.7 µM (inactive) in the experiment on IGROV-1; 96.2 µM (inactive) in the experiment with M14; > 100 µM (inactive) in the experiment on MOLT-4. In the experiment with OVCAR-5, the GI50 was > 100 µM (inactive).

As to `COC(=O)Cc1c(C2=Nc3ccccc3C2(O)CC(=O)OC)[nH]c2ccccc12` (stereo not given), the GI50 with SN12C is 68.5 µM (inactive); in the experiment on ACHN, 34.9 µM (inactive); with SW-620 it was 47.3 µM (inactive); in the experiment with NCI-H522, 18.9 µM (inactive); in the experiment on CAKI-1 it was 23 µM (inactive); with UACC-257, > 100 µM (inactive). Besides, the GI50 with A549 is 94 µM (inactive); in the experiment on RPMI-8226, 25.4 µM (inactive); in the experiment on LOX IMVI, 99.3 µM (inactive); in the experiment on KM12, 58.6 µM (inactive); in the experiment with NCI/ADR-RES, > 100 µM (inactive); in the experiment on NCI-H23, > 100 µM (inactive). In addition, the GI50 in the experiment on NCI-H226 is > 100 µM (inactive); in the experiment on DU-145, > 100 µM (inactive); with U-251, 34.5 µM (inactive); with IGROV-1 it was 1.09 µM (active); in the experiment on M14, 78.2 µM (inactive); in the experiment on MOLT-4, 19.7 µM (inactive). Also, the GI50 in the experiment on OVCAR-5 was 54.6 µM (inactive).

As to `NC(=S)NN=Cc1ccccc1OCc1cccc(COc2ccccc2C=NNC(N)=S)n1`, the GI50 is > 79.3 µM (inactive) in the experiment with SN12C; 20.6 µM (inactive) in the experiment on ACHN; > 96.4 µM (inactive) in the experiment with SW-620; > 64.9 µM (inactive) with NCI-H522; > 100 µM (inactive) in the experiment with CAKI-1; > 79.8 µM (inactive) with UACC-257. Moreover, the GI50 in the experiment on A549 is > 100 µM (inactive); in the experiment with RPMI-8226 it was > 100 µM (inactive); with LOX IMVI, > 100 µM (inactive); with KM12 it was > 100 µM (inactive); with NCI/ADR-RES it was 40.6 µM (inactive); in the experiment with NCI-H23, 29.8 µM (inactive). Further, the GI50 was > 34.4 µM (inactive) with NCI-H226; 13.7 µM (inactive) in the experiment on DU-145; 4.55 µM (inactive) with U-251; 13.7 µM (inactive) in the experiment on IGROV-1; > 100 µM (inactive) in the experiment with M14; > 100 µM (inactive) in the experiment with MOLT-4. Further, in the experiment on OVCAR-5, the GI50 was 29.9 µM (inactive).

Turning to `Cc1nn(-c2ccccc2)c2c1C(c1cc3ccccc3nc1Cl)NC(=S)N2` (stereo not given), the GI50 in the experiment on SN12C was 78.3 µM (inactive); with ACHN, 54.2 µM (inactive); with SW-620, 30.1 µM (inactive); in the experiment with NCI-H522, 14.3 µM (inactive); in the experiment on CAKI-1, 59.4 µM (inactive); in the experiment on UACC-257 it was > 100 µM (inactive). For the same compound, the GI50 in the experiment on A549 was > 100 µM (inactive); in the experiment on RPMI-8226 it was 20.7 µM (inactive); with LOX IMVI, 22.6 µM (inactive); in the experiment on KM12, 30.7 µM (inactive); in the experiment on NCI/ADR-RES, 46.3 µM (inactive); in the experiment with NCI-H23, 67.3 µM (inactive). The GI50 in the experiment with NCI-H226 is > 100 µM (inactive); in the experiment with DU-145, > 100 µM (inactive); in the experiment on U-251, 23.4 µM (inactive); with IGROV-1, 12 µM (inactive); in the experiment with M14, > 100 µM (inactive); with MOLT-4 it was 29.4 µM (inactive). Moreover, in the experiment with OVCAR-5, the GI50 was > 100 µM (inactive).

On to `Cc1ccc([N+](=O)[O-])c2c(NCC(O)CO)ccnc12` (stereo not given), for which the GI50 was 75.3 µM (inactive) with SN12C; 57.5 µM (inactive) in the experiment on ACHN; 49.2 µM (inactive) in the experiment with SW-620; > 10 µM (inactive) in the experiment on NCI-H522; 54 µM (inactive) with CAKI-1; 36.4 µM (inactive) with UACC-257. Further, the GI50 with A549 was 25.4 µM (inactive); with RPMI-8226 it was 84.9 µM (inactive); in the experiment with LOX IMVI, 37.6 µM (inactive); in the experiment with KM12, 32.2 µM (inactive); in the experiment with NCI/ADR-RES it was > 100 µM (inactive); in the experiment with NCI-H23, 41.8 µM (inactive). Moreover, the GI50 is 73.1 µM (inactive) in the experiment on NCI-H226; 51.4 µM (inactive) with DU-145; 93.8 µM (inactive) with U-251; 43.2 µM (inactive) with IGROV-1; 51.9 µM (inactive) in the experiment with M14; > 100 µM (inactive) in the experiment with MOLT-4. In the experiment with OVCAR-5, the GI50 was > 100 µM (inactive).

As to `O=c1c(-c2ccccc2)c(SCCO)n(-c2ccccc2)c(=S)n1-c1ccccc1`, the GI50 with SN12C, in the experiment with ACHN, in the experiment with SW-620, with NCI-H522, in the experiment on CAKI-1 and with UACC-257 was > 100 µM (inactive) in each case. The GI50 in the experiment on A549, in the experiment on RPMI-8226, in the experiment with LOX IMVI, with KM12, with NCI/ADR-RES and with NCI-H23 was > 100 µM (inactive) in each case. In addition, the GI50 in the experiment on NCI-H226, in the experiment with DU-145, in the experiment on U-251, with IGROV-1, in the experiment on M14 and in the experiment with MOLT-4 was > 100 µM (inactive) throughout. Moreover, in the experiment with OVCAR-5, the GI50 is > 100 µM (inactive).

Take `COC(=O)NN(C(=O)OC)c1c(-c2ccccc2)nc(SC)n1N`: the GI50 in the experiment with SN12C, in the experiment with ACHN, in the experiment with SW-620, in the experiment on NCI-H522, in the experiment with CAKI-1 and in the experiment on UACC-257 was > 100 µM (inactive) throughout. The GI50 in the experiment with A549, with RPMI-8226, with LOX IMVI, with KM12, in the experiment on NCI/ADR-RES and in the experiment on NCI-H23 was > 100 µM (inactive) each time. Also, the GI50 with NCI-H226, in the experiment with DU-145, with U-251, in the experiment with IGROV-1, with M14 and in the experiment on MOLT-4 was > 100 µM (inactive) each time. Also, the GI50 with OVCAR-5 was > 100 µM (inactive).

For the compound `O=S(=O)(Nc1nc2ccccc2nc1N1CCCCCC1)c1ccccc1`, the GI50 in the experiment with SN12C is > 100 µM (inactive); in the experiment with ACHN it was 21.1 µM (inactive); with SW-620, 22.7 µM (inactive); with NCI-H522, 19.1 µM (inactive); in the experiment on CAKI-1 it was > 100 µM (inactive); in the experiment on UACC-257, 24.5 µM (inactive). Besides, the GI50 in the experiment with A549 is 24.7 µM (inactive); in the experiment with RPMI-8226, 48.2 µM (inactive); in the experiment on LOX IMVI it was > 100 µM (inactive); in the experiment on KM12, 15.8 µM (inactive); in the experiment on NCI/ADR-RES it was 25.8 µM (inactive); in the experiment with NCI-H23, 19.1 µM (inactive). Further, the GI50 in the experiment on NCI-H226 is 27.9 µM (inactive); with DU-145 it was > 100 µM (inactive); in the experiment on U-251, 18.6 µM (inactive); with IGROV-1 it was 20.8 µM (inactive); in the experiment with M14 it was 22.5 µM (inactive); in the experiment on MOLT-4, 16.4 µM (inactive). In addition, in the experiment with OVCAR-5, the GI50 was 57.3 µM (inactive).

Regarding `O=C(NCCNCCCNC(=O)c1cc(-c2ccccc2)nc2ccccc12)c1cccc(O)c1O`, the GI50 was 1.95 µM (inactive) with SN12C; 2.43 µM (inactive) in the experiment with ACHN; 4.47 µM (inactive) in the experiment on SW-620; 6.82 µM (inactive) with NCI-H522; 5.4 µM (inactive) in the experiment with CAKI-1; 4.01 µM (inactive) with UACC-257. For the same compound, the GI50 in the experiment on A549 was 4.72 µM (inactive); with RPMI-8226, 2.85 µM (inactive); with LOX IMVI it was 3.33 µM (inactive); in the experiment on KM12 it was 4.44 µM (inactive); in the experiment with NCI/ADR-RES it was 22.4 µM (inactive); with NCI-H23, 6.14 µM (inactive). Further, the GI50 with NCI-H226 is 18.5 µM (inactive); in the experiment with DU-145 it was 3.61 µM (inactive); in the experiment on U-251, 2.87 µM (inactive); in the experiment on IGROV-1, 7.82 µM (inactive); in the experiment on M14 it was 1.46 µM (inactive); in the experiment on MOLT-4 it was 0.916 µM (active). In addition, the GI50 with OVCAR-5 was 2.28 µM (inactive).

These data come from ChEMBL document CHEMBL1201862, “PubChem BioAssay data set” (2004).
